How the values were obtained:
AR = molecular target: T1, AR (Homo sapiens, UniProt P10275, T878A); experiment: Adiol-induced AR transcription, MMTV-Luc in LNCaP cells; type: cell-based; conditions: 2.5 nM Adiol, compound at 1 μM
T1 construct: LNCaP without transfection; endogenous in cells; host or cells: LNCaP
T1 sequence (P10275 1-920 T878A): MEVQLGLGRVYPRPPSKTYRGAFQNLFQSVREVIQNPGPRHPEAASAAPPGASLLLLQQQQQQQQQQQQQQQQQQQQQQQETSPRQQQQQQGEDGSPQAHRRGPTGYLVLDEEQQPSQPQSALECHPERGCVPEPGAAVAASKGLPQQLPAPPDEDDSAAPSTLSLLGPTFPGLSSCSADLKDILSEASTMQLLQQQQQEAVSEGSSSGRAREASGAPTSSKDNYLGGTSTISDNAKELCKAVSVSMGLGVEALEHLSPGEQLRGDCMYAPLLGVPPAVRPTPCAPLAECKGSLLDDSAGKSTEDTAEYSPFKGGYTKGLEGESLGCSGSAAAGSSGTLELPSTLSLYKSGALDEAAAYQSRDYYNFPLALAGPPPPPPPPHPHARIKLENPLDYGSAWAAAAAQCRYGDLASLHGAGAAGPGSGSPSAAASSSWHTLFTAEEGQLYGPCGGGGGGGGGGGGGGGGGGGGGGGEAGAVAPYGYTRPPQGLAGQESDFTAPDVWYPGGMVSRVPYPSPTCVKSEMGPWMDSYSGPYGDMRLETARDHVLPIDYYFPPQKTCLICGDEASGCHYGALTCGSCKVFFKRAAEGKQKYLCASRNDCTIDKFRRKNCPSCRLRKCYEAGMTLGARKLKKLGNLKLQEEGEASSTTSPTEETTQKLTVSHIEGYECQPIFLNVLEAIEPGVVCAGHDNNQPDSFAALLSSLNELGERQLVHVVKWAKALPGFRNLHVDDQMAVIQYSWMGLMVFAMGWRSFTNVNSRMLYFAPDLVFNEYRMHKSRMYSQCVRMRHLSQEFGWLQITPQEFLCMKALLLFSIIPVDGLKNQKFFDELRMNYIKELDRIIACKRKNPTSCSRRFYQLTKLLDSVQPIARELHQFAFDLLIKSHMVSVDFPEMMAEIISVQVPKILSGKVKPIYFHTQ
Protocol: Cell Culture, Transfection, and Reporter Gene Assay. The human prostate cancer cell lines, LNCaP, PC-3, and DU145, and non-prostate cancer cell line COS-1 were maintained in RPMI or Dulbecco's modified Eagle's medium (DMEM) (Life Technologies) supplemented with 10% fetal bovine serum (FBS). Transfections and luciferase (Luc) assays were performed as previously described (Miyamoto, H., Yeh, S., Wilding, G. & Chang, C. (1998) Proc. Natl. Acad. Sci. USA 95, 7379-7384; Miyamoto, H., Rahman, M., Takatera, H., Kang, H.-Y., Yeh, S., Chang, H.-C., Nishimura, K., Fujimoto, N. & Chang, C. (2002) J. Biol. Chem. 277, 4609-4617). Briefly, cells seeded to reach a density of 50-60% confluence in 12 well tissue culture plates were transfected with 1.5 μg of DNA according to “SuperFect transfection” instructions (Qiagen). After 2-3 h incubation, cells were treated with medium supplemented with charcoal-stripped FBS containing either ethanol or ligands for 24 h. The cells were then harvested and whole cell extracts were used for Luc assay. The Luc activity was determined using a Dual-Luciferase Reporter Assay System (Promega) and luminometer.
Effect of ADEK on AR Transcription. […] (set as 100%). Values were obtained from the mean±SD of at least three determinations.

[1] = molecular target: T2, progesterone receptor (PR) (Homo sapiens, UniProt P06401); experiment: Steroid hormone specificity, PR/MMTV-Luc in PC-3 cells; type: cell-based; conditions: PC-3, PR/MMTV-Luc, ADEK at 0.01 mM, 0.1 mM and 1.0 mM, 24 h
T2 construct: expressed in transfected cells; host or cells: PC-3
T2 sequence (P06401 1-933): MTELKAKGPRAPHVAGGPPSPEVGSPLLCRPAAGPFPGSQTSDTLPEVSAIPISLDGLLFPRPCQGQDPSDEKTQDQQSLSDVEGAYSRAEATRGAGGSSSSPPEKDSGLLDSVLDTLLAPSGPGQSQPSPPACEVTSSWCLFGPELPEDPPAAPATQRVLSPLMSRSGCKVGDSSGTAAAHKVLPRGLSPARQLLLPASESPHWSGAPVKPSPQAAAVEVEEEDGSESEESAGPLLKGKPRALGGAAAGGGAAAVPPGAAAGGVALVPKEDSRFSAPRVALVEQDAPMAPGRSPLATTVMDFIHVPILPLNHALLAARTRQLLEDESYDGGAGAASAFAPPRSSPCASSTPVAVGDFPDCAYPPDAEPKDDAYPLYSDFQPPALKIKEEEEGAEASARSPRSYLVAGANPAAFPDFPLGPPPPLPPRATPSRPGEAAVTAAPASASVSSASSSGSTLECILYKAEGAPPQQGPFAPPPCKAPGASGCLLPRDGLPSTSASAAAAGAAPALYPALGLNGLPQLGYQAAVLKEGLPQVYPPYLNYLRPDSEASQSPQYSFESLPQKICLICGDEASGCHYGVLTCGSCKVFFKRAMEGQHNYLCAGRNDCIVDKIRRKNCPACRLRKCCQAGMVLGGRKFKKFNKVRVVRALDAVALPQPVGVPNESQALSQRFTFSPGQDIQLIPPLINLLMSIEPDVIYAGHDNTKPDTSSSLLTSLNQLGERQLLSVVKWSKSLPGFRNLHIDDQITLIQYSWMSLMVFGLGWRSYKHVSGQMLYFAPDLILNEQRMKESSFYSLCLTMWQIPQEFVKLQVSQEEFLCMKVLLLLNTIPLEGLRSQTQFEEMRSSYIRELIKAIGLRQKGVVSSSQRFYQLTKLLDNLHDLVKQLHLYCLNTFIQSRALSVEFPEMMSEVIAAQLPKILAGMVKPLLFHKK
Protocol: Cell Culture, Transfection, and Reporter Gene Assay. The human prostate cancer cell lines, LNCaP, PC-3, and DU145, and non-prostate cancer cell line COS-1 were maintained in RPMI or Dulbecco's modified Eagle's medium (DMEM) (Life Technologies) supplemented with 10% fetal bovine serum (FBS). Transfections and luciferase (Luc) assays were performed as previously described (Miyamoto, H., Yeh, S., Wilding, G. & Chang, C. (1998) Proc. Natl. Acad. Sci. USA 95, 7379-7384; Miyamoto, H., Rahman, M., Takatera, H., Kang, H.-Y., Yeh, S., Chang, H.-C., Nishimura, K., Fujimoto, N. & Chang, C. (2002) J. Biol. Chem. 277, 4609-4617). Briefly, cells seeded to reach a density of 50-60% confluence in 12 well tissue culture plates were transfected with 1.5 μg of DNA according to “SuperFect transfection” instructions (Qiagen). […] The Luc activity was determined using a Dual-Luciferase Reporter Assay System (Promega) and luminometer.
Steroid Hormone Specificity of ADEK. To characterize the steroid hormone activity of ADEK, PC-3 cells were transfected with steroid receptor/reporter (progesterone receptor (PR)/MMTV-Luc, glucocorticoid receptor (GR)/MMTV-Luc, or estrogen receptor (ER)/ERE-Luc) and analyzed for expression of the Luc reporter gene. […] The Luc activity was measured relative to that of ETOH treatment (set as 1-fold). […]

Question: For `CC(=O)O[C@H]1C=C[C@@]2(C)C(=CC[C@@H]3[C@@H]2CC[C@@]2(C)[C@H]3CCC23OCCO3)C1` [ADEK, 3β-acetoxy-17,17-ethylenedioxyandrosta-1,5-diene], which “repression of Adiol-induced AR transcription” value (AR) is on record?
Answer: ~58%

Question: And the “progesterone activity (in words)” value [1]?
Answer: no significant
